# Experimental data reported in patent US12371666B2, “Nucleoside modified mRNA and uses thereof” (BOSTON MEDICAL CENTER CORPORATION, priority 2021, dated 2025).
# Like-named read-outs stand apart in the source and are kept apart here.
# B1: cGH: rat recombinant GH given by continuous infusion via osmotic minipump (protein, UniProt P01244 27-216, looked up)
# Somatotropin: FPAMPLSSLFANAVLRAQHLHQLAADTYKEFERAYIPEGQRYSIQNAQAAFCFSETIPAPTGKEEAQQRTDMELLRFSLLLIQSWLGPVQFLSRIFTNSLMFGTSDRVYEKLKDLEEGIQALMQELEDGSPRIGQILKQTYDKFDANMRSDDALLKNYGLLSCFKKDLHKAETYLRVMKCRRFAESSCAF
# Legend:
# centrilobular necrosis = experiment: APAP-NSG liver injury model dose test; conditions: NSG mice, 24 h after injection
# [1] = system: APAP-induced liver injury; experiment: Acetaminophen-induced liver injury in male and female C57BL/6J mice
# Experimental: Images from stained sections were visualized and measured at 40× magnification on ImageJ™ (FIJI) using the area measurement tool. 2-3 lobes were measured and averaged per mouse.
# [2] = system: APAP-induced liver injury; format: in vivo; conditions: for survival: GH 2.5 mg/kg or NAC 1000 mg/kg 8 hours post-APAP
# Experimental: Acetaminophen-induced liver injury mouse model.
# GH and NAC were both diluted in sterile PBS. GH was diluted to a concentration of 1 mg/mL and given at dosage indicated, subcutaneously with a 0.5 mL insulin syringe. NAC was diluted to a concentration of 50 mg/mL and given at 1000 mg/kg dosage, intraperitoneally with a 1 mL insulin syringe.
# The statistical analyses for the graphs were carried out using two-sided student's t test for unpaired comparisons with GraphPad Prism™. The statistical analyses for the Kaplan-Meier survival curves were carried out using the Log-rank Mantel-Cox test with GraphPad Prism. A p value<0.05 was considered significant, ***<0.0001, **<0.001, *<0.05, n.s. or no result=not significant.
# [3] = intravenous NAC; cited from earlier work
# [4] = system: Tg(fabp10a:CFP-NTR) larvae; experiment: Zebrafish NTR/Mtz hepatocyte ablation model of BEC-driven liver regeneration; conditions: for size of regenerating livers: 2 μM, treatment from A0h to R24h
# Excerpt: a. […] In the Tg(fabp10a:CFP-NTR)^5931 zebrafish line, bacterial nitroreductase (NTR) is expressed under the hepatocyte-specific fabp10a promoter^2. Since the NTR enzyme converts the non-toxic prodrug, metronidazole (Mtz), into a cytotoxic drug^59, 60 treating the transgenic zebrafish with Mtz specifically ablates hepatocytes. In this model, upon severe hepatocyte loss, BECs first dedifferentiate into LPCs, then re-differentiate into either hepatocytes or BECs, thereby leading to full liver recovery^2.
# b. […] Upon targeted chemical screening using the NTR/Mtz model^61, the inventors examined the effect of VEGFR2 inhibition on BEC-driven liver regeneration. The inventors used the Notch reporter line Tg(Tp1:H2B-mCherry)^939 that expresses H2B-mCherry fusion proteins in BECs.
# c. […] Given that VEGFR2 functions via at least two major signaling branches, PI3K/AKT and MEK/ERK1/2, the inventors tested which downstream branch controls BEC-driven liver regeneration using their specific inhibitors (LY294002 for PI3K and U0126 for MEK1/2). […] Given the well-known cascade of PI3K-AKT-mTOR, the inventors further examined mTOR activity in the regenerating livers.
# [5] = system: BEC-driven liver regeneration; conditions: earlier chemical screen of the inventors; cited from earlier work
# [6] = system: BEC-driven liver regeneration; experiment: BEC-driven liver regeneration in zebrafish hepatocyte ablation model Tg(fabp10a:CFP-NTR) with Mtz; format: in vivo
# Experimental: Experiments on zebrafish: All zebrafish experiments were performed under the approval of the IACUC at the University of Pittsburgh. Embryos and adult fish were raised and maintained under standard laboratory conditions. The following transgenic lines were used: Tg(fabp10a:CFP-NTR)s931, Tg(Tp1:H2B-mCherry)s939, Tg(hs:sflt1)bns80, Tg(Tp1:CreERT2)s959, and Tg(hs:loxP-mCherry-loxP-hVEGFA)mn32.
# Hepatocyte ablation using the Tg(fabp10a:CFP-NTR) line: Hepatocyte ablation was performed by treating Tg(fabp10a:CFP-NTR) larvae with 10 mM Mtz in egg water supplemented with 0.2% DMSO and 0.2 mM 1-phenyl-2-thiourea from 3.5 to 5 dpf for 36 hours, as previously described^9.
# SU5416 treatment: SU5416 (MedChemExpress, Monmouth Junction, NJ) was used at 1.5 μM.
# Heat-shock conditions for zebrafish larvae: Both Tg(hs:sflt1) and Tg(hs:loxP-mCherry-loxP-hVEGFA) larvae were heat-shocked by transferring them into egg water pre-warmed to 38.5° C. and keeping them at this temperature for 20 minutes, as previously described^10.
# Whole-mount in situ hybridization and immunostaining in zebrafish: Whole-mount in situ hybridization was performed, as previously described^11, with gc^12 and f5 probes. […]
# Quantification of Bhmt+ cell number and Bhmt+ area in the zebrafish liver: For the quantification of Bhmt+ cell number, confocal projection images consisting of 6 optical-section images, with 3-μm interval, were used. Bhmt+ and Tp1:H2B-mCherry+ cells were manually counted; the number of Bhmt/Tp:H2B-mCherry double-positive cells was divided by the number of Tp1:H2B-mCherry+ cells. For the quantification of Bhmt+ liver area, confocal projection images showing Bhmt and fabp10a:CFP-NTR expression were used. Both Bhmt^+ and fabp10a:CFP-NTR+ areas in the liver were calculated by ImageJ and the former area was divided by the latter.
# Image acquisition, processing, and statistical analysis of zebrafish data: Zeiss LSM700 confocal and Leica MZ16 microscopes were used to obtain image data. Confocal stacks were analyzed using the Zen 2009 software. […] Quantitative data were shown as mean±standard error of the mean (SEM).
# [7] = b-estradiol treatment of males in APAP liver injury, serum ALT; format: in vivo, mouse; conditions: IP 0.5 mg/kg in corn oil, 24 hours following APAP injection
# liver sex-biased genes = conditions: rat GH 25 ng/g BW/hr by minipump, male mice; cited from earlier work
molecule,measurement,setting,value
"CC(=O)Nc1ccc(O)cc1 [APAP, acetyl-para-aminophenol]",liver damage,centrilobular necrosis; 200 mg/Kg,mild
same,liver damage,centrilobular necrosis; 400 mg/kg,severe damage and ultimately death
same,"necrosis (H&E), males vs females",[1]; 400 mg/kg,"more extensive in male livers and progressively increased overtime, whereas female livers fully recovered by 48 hours"
same,"serum bilirubin, males vs females",[1]; 400 mg/kg,persisted for 96 hours in males but decreased after 48 hours in females
same,injury and lethality,"[1]; 400 mg/kg intraperitoneally, both sexes",induces injury in both sexes without lethality up to 96 hours
same,"serum ALT levels, males vs females","[1]; 400 mg/kg, time points post-24 hours",consistently higher in males than in females
"CC(=O)N[C@@H](CS)C(=O)O [NAC, N-acetyl cysteine]",survival,[2]; females,all females survived regardless of the treatment
same,necrotic tissue,"[2]; females, NAC 1000 mg/kg",did not show the beneficial effect of reducing necrotic tissue
same,necrotic areas,"[2]; males that survived 24 hours post-APAP, NAC 1000 mg/kg",significantly diminished
same,apoptotic TUNEL+ area,"[2]; males, 24 hours post-APAP",significantly diminished
same,survival,"[2]; males, 48 hours post-APAP",all NAC-treated males died by 48 hours post-APAP
same,patients with anaphylactoid reaction,[3],up to 18%
CN(C)c1ccc(/C=C2\C(=O)Nc3ccccc32)cc1 [SU4312],size of regenerating livers,[4],significantly reduced the size of regenerating livers
same,induction of early hepatocyte markers Prox1 and HNF4α in BEC-derived LPCs,[5],did not affect
same,size of regenerating livers,[5],significantly reduced the size of regenerating livers
Cc1cc(C)c(/C=C2\C(=O)Nc3ccccc32)[nH]1 [SU5416],LPC-to-hepatocyte differentiation defect by gc and f5 expression,[6]; R24h,This defect was confirmed
same,expression of the hepatocyte marker Bhmt,"[6]; R24h, SU5416 from A18h to R24h",greatly suppressed the expression of the hepatocyte marker Bhmt
same,size of regenerating livers,[6]; SU5416 1.5 μM from A18h to R24h,significantly reduced the size of regenerating livers
same,size of regenerating livers,[4],significantly reduced the size of regenerating livers
same,expression of Prox1 and Hnf4a in LPCs,[4]; R6h,normal expression of Prox1 and Hnf4a
same,pS6 expression in LPCs (mTORC1 activation),[4]; R6h regenerating livers,absent
same,expression of fabp10a:CFP-NTR,[4]; R24h,very weak expression
same,expression of the hepatocyte marker Bhmt,[4]; R24h,almost no expression
same,induction of early hepatocyte markers Prox1 and HNF4α in BEC-derived LPCs,[5],did not affect
same,size of regenerating livers,[5],significantly reduced the size of regenerating livers
C[C@]12CC[C@@H]3c4ccc(O)cc4CC[C@H]3[C@@H]1CC[C@@H]2O [b-estradiol],ALT levels,[7],significantly decreased ALT levels
B1,liver sex-biased genes whose expression is feminized,liver sex-biased genes,92%
